Results reported in patent US11116760B2 (Gilead Sciences, Inc., priority 2018, dated 2021).

molecular target: α4β7 integrin (Homo sapiens (Human), UniProt P13612+P26010); experiment: α4β7 Integrin Cell Capture Assay; type: cell-based; details: Table 2; capture of α4β7 expressing RPM18866 cells on MadCAM-1 extracellular domain-coated plate
Sequence (P13612 34-1032): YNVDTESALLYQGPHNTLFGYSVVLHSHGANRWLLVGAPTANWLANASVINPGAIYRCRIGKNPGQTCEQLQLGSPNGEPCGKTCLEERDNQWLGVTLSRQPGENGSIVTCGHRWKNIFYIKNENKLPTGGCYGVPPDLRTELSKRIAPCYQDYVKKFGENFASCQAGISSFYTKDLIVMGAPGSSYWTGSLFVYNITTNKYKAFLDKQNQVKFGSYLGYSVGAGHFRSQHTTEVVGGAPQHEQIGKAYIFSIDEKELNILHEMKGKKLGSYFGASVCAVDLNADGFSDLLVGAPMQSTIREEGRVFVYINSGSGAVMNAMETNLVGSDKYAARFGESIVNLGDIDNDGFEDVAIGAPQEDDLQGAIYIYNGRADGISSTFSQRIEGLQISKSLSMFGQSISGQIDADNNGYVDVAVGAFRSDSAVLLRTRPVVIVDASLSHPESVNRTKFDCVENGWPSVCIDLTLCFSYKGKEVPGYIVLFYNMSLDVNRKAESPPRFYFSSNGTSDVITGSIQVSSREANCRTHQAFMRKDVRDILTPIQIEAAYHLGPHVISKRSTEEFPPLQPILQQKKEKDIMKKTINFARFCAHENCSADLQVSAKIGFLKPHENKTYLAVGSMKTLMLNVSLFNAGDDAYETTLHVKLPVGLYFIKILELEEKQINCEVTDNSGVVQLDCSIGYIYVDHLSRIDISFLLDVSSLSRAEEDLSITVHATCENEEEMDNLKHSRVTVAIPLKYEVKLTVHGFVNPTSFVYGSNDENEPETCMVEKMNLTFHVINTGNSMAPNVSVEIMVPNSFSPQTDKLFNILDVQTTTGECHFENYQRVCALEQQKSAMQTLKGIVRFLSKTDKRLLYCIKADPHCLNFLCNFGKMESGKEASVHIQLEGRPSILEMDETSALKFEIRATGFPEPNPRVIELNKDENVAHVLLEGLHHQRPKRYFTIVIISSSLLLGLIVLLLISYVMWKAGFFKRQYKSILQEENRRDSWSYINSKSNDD
Sequence (P26010 20-798): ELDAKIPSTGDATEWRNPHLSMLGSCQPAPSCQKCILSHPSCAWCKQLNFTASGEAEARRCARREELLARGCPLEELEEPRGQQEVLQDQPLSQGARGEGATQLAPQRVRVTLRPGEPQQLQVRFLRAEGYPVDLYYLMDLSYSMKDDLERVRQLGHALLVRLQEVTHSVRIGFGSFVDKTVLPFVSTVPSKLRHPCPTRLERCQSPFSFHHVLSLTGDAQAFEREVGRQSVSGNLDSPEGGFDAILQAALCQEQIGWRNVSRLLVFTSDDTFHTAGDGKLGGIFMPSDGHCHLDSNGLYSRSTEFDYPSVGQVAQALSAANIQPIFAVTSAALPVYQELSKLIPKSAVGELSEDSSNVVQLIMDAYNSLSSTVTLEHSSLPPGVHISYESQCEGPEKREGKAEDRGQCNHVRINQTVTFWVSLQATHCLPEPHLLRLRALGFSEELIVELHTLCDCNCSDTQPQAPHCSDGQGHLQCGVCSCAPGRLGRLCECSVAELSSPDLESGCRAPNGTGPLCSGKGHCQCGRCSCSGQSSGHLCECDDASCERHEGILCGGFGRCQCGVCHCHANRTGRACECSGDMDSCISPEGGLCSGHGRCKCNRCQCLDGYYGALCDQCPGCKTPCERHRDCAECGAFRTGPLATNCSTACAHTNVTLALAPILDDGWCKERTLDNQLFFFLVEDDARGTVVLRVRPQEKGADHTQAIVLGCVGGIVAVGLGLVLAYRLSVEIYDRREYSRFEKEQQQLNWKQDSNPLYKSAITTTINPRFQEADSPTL

Compared with `CC(O)(c1cc(F)c(C(=O)N[C@@H](Cc2ccc(-c3ccc(C#N)cc3Cl)c3ncccc23)C(=O)O)c(F)c1)C(F)(F)F` (stereo partly drawn) [Example 280], `C[C@H](O)Cc1cc(F)c(C(=O)N[C@@H](Cc2ccc(-c3ccc(C#N)cc3Cl)c3ncccc23)C(=O)O)c(F)c1` [Example 286] is 1.8-fold lower in EC50: 86.1 nM for the first, 47.3 nM for the second.

`Cc1cc(C(F)(F)F)c(-c2ccc(C[C@H](NC(=O)c3c(F)cc(N4CCOC[C@@H]4C(F)(F)F)cc3F)C(=O)O)c3cc(N(C)C)cnc23)c(=O)n1C` [Example 281] and `Cc1cc(C(F)(F)F)c(-c2ccc(C[C@H](NC(=O)c3c(F)cc(N4CC[C@H]4C(F)(F)F)cc3F)C(=O)O)c3cccnc23)c(=O)n1C` [Example 298] are within 1.5-fold of each other in EC50: 5.5 nM for the first, 7.9 nM for the second.

Going from `O=C(N[C@@H](Cc1ccc(-c2c(Cl)cc(F)cc2Cl)c2ncccc12)C(=O)O)c1c(F)cc(N[C@H](c2ccccc2)C(F)(F)F)cc1F` [Example 282] to `C[C@@H](Nc1cc(F)c(C(=O)N[C@@H](Cc2ccc(-c3c(Cl)cc(C#N)cc3Cl)c3ncccc23)C(=O)O)c(F)c1)C(F)(F)F` [Example 288], the EC50 falls from 26.8 nM to 5.8 nM (4.6-fold). The second is the more potent here.

`C[C@@H](Nc1cc(F)c(C(=O)N[C@@H](Cc2ccc(-c3ncccc3C(F)(F)F)c3ncccc23)C(=O)O)c(F)c1)C(F)(F)F` [Example 283] and `CC[C@@H](Nc1cc(F)c(C(=O)N[C@@H](Cc2ccc(-c3nc(C)ccc3C(F)(F)F)c3ncccc23)C(=O)O)c(F)c1)C(F)(F)F` [Example 289] are within 1.5-fold of each other in EC50: 5.7 nM for the first, 6.5 nM for the second.

Going from `N#Cc1ccc(-c2ccc(C[C@H](NC(=O)c3c(F)cc(NC4(C(F)F)CC4)cc3F)C(=O)O)c3cccnc23)c(Cl)c1` [Example 284] to `N#Cc1ccc(-c2ccc(C[C@H](NC(=O)c3c(F)cc(N[C@H](c4ccccc4)C(F)F)cc3F)C(=O)O)c3cccnc23)c(Cl)c1` [Example 324], the EC50 falls from 45.9 nM to 18.7 nM (2.5-fold).

Compared with `Cn1ccc2c(Cl)c(C(=O)N[C@@H](Cc3ccc(-c4ccc(C#N)cc4Cl)c4ncccc34)C(=O)O)c(Cl)cc21` [Example 285], `N#Cc1ccc(-c2ccc(C[C@H](NC(=O)c3c(Cl)cc4cc[nH]c4c3Cl)C(=O)O)c3cccnc23)c(Cl)c1` [Example 317] is 3.3-fold lower in EC50: 46.2 nM for the first, 13.8 nM for the second.

First: CC[C@@H](Nc1cc(F)c(C(=O)N[C@@H](Cc2ccc(-c3c(C)c(N(C)C)cn(C)c3=O)c3ncccc23)C(=O)O)c(F)c1)C(F)(F)F [Example 287]
Second: CC[C@@H](Nc1cc(F)c(C(=O)N[C@@H](Cc2ccc(-c3ncc(C)cc3N(C)C)c3ncccc23)C(=O)O)c(F)c1)C(F)(F)F [Example 313]
The EC50 of the first is 2.3-fold lower: 5.7 nM for the first, 13.3 nM for the second. The first is the more potent here.

Going from `CC[C@@H](Nc1cc(F)c(C(=O)N[C@@H](Cc2ccc(-c3c(C(F)(F)F)ccc4cccnc34)c3ncccc23)C(=O)O)c(F)c1)C(F)(F)F` [Example 290] to `CC[C@@H](Nc1cc(F)c(C(=O)N[C@@H](Cc2ccc(-c3ncc(C)cc3C(F)(F)F)c3ncccc23)C(=O)O)c(F)c1)C(F)(F)F` [Example 310], the EC50 rises from 6.5 nM to 12.3 nM (1.9-fold). The first is the more potent here.

`COc1ccc(C)nc1-c1ccc(C[C@H](NC(=O)c2c(F)cc(N3CCOC[C@H]3C(F)(F)F)cc2F)C(=O)O)c2cccnc12` [Example 291] and `Cc1nc(-c2ccc(C[C@H](NC(=O)c3c(F)cc(N4CCOC[C@@H]4C(F)(F)F)cc3F)C(=O)O)c3cccnc23)ncc1F` [Example 301] are within 1.5-fold of each other in EC50: 6.9 nM for the first, 9.4 nM for the second.

Going from `N#Cc1cc(Cl)c(-c2ccc(C[C@H](NC(=O)c3c(F)cc(CS(=O)(=O)c4ccccc4)cc3F)C(=O)O)c3cccnc23)c(Cl)c1` [Example 293] to `N#Cc1ccc(-c2ccc(C[C@H](NC(=O)c3c(F)cc(NC(c4ccccc4)C(F)F)cc3F)C(=O)O)c3cccnc23)c(Cl)c1` (stereo partly drawn) [Example 326], the EC50 rises from 6.9 nM to 19.1 nM (2.8-fold). The first is the more potent here.

Compared with `CC[C@@H](Nc1cc(F)c(C(=O)N[C@@H](Cc2ccc(-c3nc(C)c(C)nc3C)c3ncccc23)C(=O)O)c(F)c1)C(F)(F)F` [Example 295], `CC[C@@H](Nc1cc(F)c(C(=O)N[C@@H](Cc2ccc(-c3nc(C)nc(C)c3C)c3ncccc23)C(=O)O)c(F)c1)C(F)(F)F` [Example 320] is 2.1-fold higher in EC50: 7.4 nM for the first, 15.3 nM for the second. The first is the more potent here.

`CC[C@@H](Nc1cc(F)c(C(=O)N[C@@H](Cc2ccc(-c3cn(C)c(=O)cc3C(F)(F)F)c3ncccc23)C(=O)O)c(F)c1)C(F)(F)F` [Example 296] and `CC[C@@H](Nc1cc(F)c(C(=O)N[C@@H](Cc2ccc(-c3nccc(C)c3C)c3ncccc23)C(=O)O)c(F)c1)C(F)(F)F` [Example 307] are within 1.5-fold of each other in EC50: 7.7 nM for the first, 11.4 nM for the second.

`CCOCc1cc(OC)c(-c2ccc(C[C@H](NC(=O)c3c(Cl)cc4[nH]c(Cc5ccccc5)cc4c3Cl)C(=O)O)c3cccnc23)c(OC)c1` [Example 297] and `O=C(N[C@@H](Cc1ccc(-c2ncc3ccccc3c2Br)c2ncccc12)C(=O)O)c1c(Cl)cccc1Cl` [Example 303] are within 1.5-fold of each other in EC50: 7.9 nM for the first, 9.4 nM for the second.

Compared with `O=C(N[C@@H](Cc1ccc(-c2ncc3c(n2)CCC3)c2ncccc12)C(=O)O)c1c(F)cc(N2CCOC[C@@H]2C(F)(F)F)cc1F` [Example 299], `CN1CCc2nc(-c3ccc(C[C@H](NC(=O)c4c(F)cc(N5CCOC[C@@H]5C(F)(F)F)cc4F)C(=O)O)c4cccnc34)ncc2C1` [Example 312] is 1.5-fold higher in EC50: 8.2 nM for the first, 12.5 nM for the second. The first is the more potent here.

Going from `CC[C@@H](Nc1cc(F)c(C(=O)N[C@@H](Cc2ccc(-c3nccc(C)c3N(C)C)c3ncccc23)C(=O)O)c(F)c1)C(F)(F)F` [Example 300] to `CC[C@@H](Nc1cc(F)c(C(=O)N[C@@H](Cc2ccc(-c3nccc(C)c3Cl)c3ncccc23)C(=O)O)c(F)c1)C(F)(F)F` [Example 325], the EC50 rises from 8.4 nM to 18.8 nM (2.2-fold).

First: N#Cc1cc(Cl)c(-c2ccc(C[C@H](NC(=O)c3c(Cl)cccc3Cl)C(=O)O)c3cc(F)cnc23)c(Cl)c1 [Example 304]
Second: N#Cc1ccc(-c2ccc(C[C@H](NC(=O)c3c(Cl)cc4nc[nH]c4c3Cl)C(=O)O)c3cccnc23)c(Cl)c1 [Example 323]
The EC50 of the first is 1.8-fold lower: 9.6 nM for the first, 17.1 nM for the second. The first is the more potent here.

`CC[C@@H](Nc1cc(F)c(C(=O)N[C@@H](Cc2ccc(-c3ncccc3C(C)C)c3ncccc23)C(=O)O)c(F)c1)C(F)(F)F` [Example 305] and `CC[C@@H](Nc1cc(F)c(C(=O)N[C@@H](Cc2ccc(-c3ncccc3N(C)C)c3ncccc23)C(=O)O)c(F)c1)C(F)(F)F` [Example 315] are within 1.5-fold of each other in EC50: 10.2 nM for the first, 13.6 nM for the second.

`O=C(N[C@@H](Cc1ccc(-c2ccc3c4c(ccnc24)CCO3)c2ncccc12)C(=O)O)c1c(F)cccc1F` [Example 306] and `Cc1nc(-c2ccc(C[C@H](NC(=O)c3c(F)cccc3F)C(=O)O)c3cccnc23)c(C(F)(F)F)c2ccccc12` [Example 318] are within 1.5-fold of each other in EC50: 11.2 nM for the first, 14.3 nM for the second.

`O=C(N[C@@H](Cc1ccc(-c2c(C(F)(F)F)cc3n(c2=O)CCC3)c2ncccc12)C(=O)O)c1c(Cl)cccc1Cl` [Example 308] and `O=C(N[C@@H](Cc1ccc(-c2ncc3ccc(C4CC4)cc3c2C(F)(F)F)c2ncccc12)C(=O)O)c1c(Cl)cccc1Cl` [Example 319] are within 1.5-fold of each other in EC50: 11.9 nM for the first, 14.4 nM for the second.

`CC[C@@H](Nc1cc(F)c(C(=O)N[C@@H](Cc2ccc(-c3ncc4c(n3)CCC4)c3ncccc23)C(=O)O)c(F)c1)C(F)(F)F` [Example 311] and `CC[C@@H](Nc1cc(F)c(C(=O)N[C@@H](Cc2ccc(-c3nc(C)ccc3Cl)c3ncccc23)C(=O)O)c(F)c1)C(F)(F)F` [Example 321] are within 1.5-fold of each other in EC50: 12.3 nM for the first, 15.8 nM for the second.

`O=C(N[C@@H](Cc1ccc(NC(=O)c2c(Cl)cncc2Cl)c2ncccc12)C(=O)O)c1c(F)cccc1F` [Example 316] and `CC(C)(O)[C@H](F)CNC(=O)c1cc(F)c(C(=O)N[C@@H](Cc2ccc(-c3ccc(C#N)cc3Cl)c3ncccc23)C(=O)O)c(F)c1` [Example 322] are within 1.5-fold of each other in EC50: 13.7 nM for the first, 16.2 nM for the second.
